# Where two headings read alike, the source gives them in different places. Marks after values point to notes of the source that are not given here.
# How the values were obtained:
# [1] = tested on: Salmonella typhimurium TA100
# [2] = tested on: Salmonella typhimurium TA98
# [3] = tested on: Salmonella typhimurium TA100; remark: listed apart in the source
# [4] = TA 98, − S9, HK 19.5 μg/plate + NOPD 10.0 μg/plate
# [5] = TA 98, − S9, HK 39.0 μg/plate + NOPD 10.0 μg/plate
# [6] = TA 98, − S9, HK 58.5 μg/plate + NOPD 10.0 μg/plate
# [7] = TA 98, − S9, HK 78.0 μg/plate + NOPD 10.0 μg/plate
# [8] = TA 98, − S9, HK […] + NOPD 10.0 μg/plate
# [9] = TA 100, + S9, HK 19.5 μg/plate + AFB1 0.5 μg/plate
# [10] = TA 100, + S9, HK 39.0 μg/plate + AFB1 0.5 μg/plate
# [11] = TA 100, + S9, HK 58.5 μg/plate + AFB1 0.5 μg/plate
# [12] = TA 100, + S9, HK 78.0 μg/plate + AFB1 0.5 μg/plate
# [13] = TA 100, + S9, HK […] + AFB1 0.5 μg/plate
# [14] = TA 100, − S9, HK 19.5 μg/plate + SA 1.25 μg/plate
# [15] = TA 100, − S9, HK 39.0 μg/plate + SA 1.25 μg/plate
# [16] = TA 100, − S9, HK 58.5 μg/plate + SA 1.25 μg/plate
# [17] = TA 100, − S9, HK 78.0 μg/plate + SA 1.25 μg/plate
# [18] = TA 100, − S9, HK […] + SA 1.25 μg/plate
smiles,measurement,setting,value
"O=C1OC[C@H](Cc2ccc3c(c2)OCO3)[C@H]1Cc1ccc2c(c1)OCO2 [HK, (−)-hinokinin]",MI (mutagenicity index),"[1]; TA 100, + S9, HK 19.5 μg/plate",1.0
same,Number of revertants(M ± SD)/ plate,"[1]; TA 100, + S9, HK 19.5 μg/plate",128 ± 6 revertants/plate
same,MI (mutagenicity index),"[1]; TA 100, + S9, HK 39.0 μg/plate",0.9
same,Number of revertants(M ± SD)/ plate,"[1]; TA 100, + S9, HK 39.0 μg/plate",115 ± 8 revertants/plate
same,MI (mutagenicity index),"[1]; TA 100, + S9, HK 58.5 μg/plate",1.1
same,Number of revertants(M ± SD)/ plate,"[1]; TA 100, + S9, HK 58.5 μg/plate",134 ± 2 revertants/plate
same,MI (mutagenicity index),"[1]; TA 100, + S9, HK 78.0 μg/plate",1.0
same,Number of revertants(M ± SD)/ plate,"[1]; TA 100, + S9, HK 78.0 μg/plate",120 ± 8 revertants/plate
same,MI (mutagenicity index),"[1]; TA 100, - S9, HK 19.5 μg/plate",1.0
same,Number of revertants(M ± SD)/ plate,"[1]; TA 100, - S9, HK 19.5 μg/plate",129 ± 6 revertants/plate
same,MI (mutagenicity index),"[1]; TA 100, - S9, HK 39.0 μg/plate",1.0
same,Number of revertants(M ± SD)/ plate,"[1]; TA 100, - S9, HK 39.0 μg/plate",134 ± 5 revertants/plate
same,MI (mutagenicity index),"[1]; TA 100, - S9, HK 58.5 μg/plate",0.8
same,Number of revertants(M ± SD)/ plate,"[1]; TA 100, - S9, HK 58.5 μg/plate",112 ± 3 revertants/plate
same,MI (mutagenicity index),"[1]; TA 100, - S9, HK 78.0 μg/plate",1.1
same,Number of revertants(M ± SD)/ plate,"[1]; TA 100, - S9, HK 78.0 μg/plate",140 ± 9 revertants/plate
same,% inhibition,"[2]; TA 98, + S9, HK 19.5 μg/plate + B[a]P 1.0 μg/plate",32** %
same,% inhibition,"[2]; TA 98, + S9, HK 39.0 μg/plate + B[a]P 1.0 μg/plate",36** %
same,% inhibition,"[2]; TA 98, + S9, HK 58.5 μg/plate + B[a]P 1.0 μg/plate",52*** %
same,% inhibition,"[2]; TA 98, + S9, HK 78.0 μg/plate + B[a]P 1.0 μg/plate",59*** %
same,% inhibition,"[2]; TA 98, + S9, HK […] + B[a]P 1.0 μg/plate",31** %
same,% inhibition,[2]; [4],21* %
same,Number of revertants(M ± SD)/ plate,[2]; [4],507 + 15 revertants/plate
same,% inhibition,[2]; [5],26** %
same,Number of revertants(M ± SD)/ plate,[2]; [5],477 + 5 revertants/plate
same,% inhibition,[2]; [6],19* %
same,Number of revertants(M ± SD)/ plate,[2]; [6],521 + 9 revertants/plate
same,% inhibition,[2]; [7],25** %
same,Number of revertants(M ± SD)/ plate,[2]; [7],480 + 16 revertants/plate
same,% inhibition,[2]; [8],18* %
same,Number of revertants(M ± SD)/ plate,[2]; [8],525 + 7 revertants/plate
same,% inhibition,[3]; [9],45*** %
same,Number of revertants(M ± SD)/ plate,[3]; [9],976 + 18 revertants/plate
same,% inhibition,[3]; [10],47*** %
same,Number of revertants(M ± SD)/ plate,[3]; [10],943 + 11 revertants/plate
same,% inhibition,[3]; [11],71*** %
same,Number of revertants(M ± SD)/ plate,[3]; [11],612 + 33 revertants/plate
same,% inhibition,[3]; [12],89*** %
same,Number of revertants(M ± SD)/ plate,[3]; [12],354 + 22 revertants/plate
same,% inhibition,[3]; [13],30** %
same,Number of revertants(M ± SD)/ plate,[3]; [13],1183 + 30 revertants/plate
same,effect on mutation induced by AFB1,"[3]; TA100, +S9",did inhibit mutation induced by the alkylating agent AFB1
same,effect on mutagenesis induced by SA,"[3]; TA100, absence of metabolic activation",did not reduce mutagenesis
same,% inhibition,[3]; [14],9* %
same,Number of revertants(M ± SD)/ plate,[3]; [14],1112 + 34 revertants/plate
same,% inhibition,[3]; [15],5* %
same,Number of revertants(M ± SD)/ plate,[3]; [15],1169 + 32 revertants/plate
same,% inhibition,[3]; [16],7* %
same,Number of revertants(M ± SD)/ plate,[3]; [16],1145 + 16 revertants/plate
same,% inhibition,[3]; [17],3* %
same,Number of revertants(M ± SD)/ plate,[3]; [17],1181 + 41 revertants/plate
same,% inhibition,[3]; [18],7* %
same,Number of revertants(M ± SD)/ plate,[3]; [18],1139 + 20 revertants/plate

# From article PMC3545969, “Mutagenicity and antimutagenicity of (−)-hinokinin a trypanosomicidal compound measured by Salmonella microsome and comet assays” (BMC Complementary and Alternative Medicine, 2012)
